Molecular target: T1, Ketohexokinase (Human, UniProt P50053)
T1 sequence (P50053 whole entry): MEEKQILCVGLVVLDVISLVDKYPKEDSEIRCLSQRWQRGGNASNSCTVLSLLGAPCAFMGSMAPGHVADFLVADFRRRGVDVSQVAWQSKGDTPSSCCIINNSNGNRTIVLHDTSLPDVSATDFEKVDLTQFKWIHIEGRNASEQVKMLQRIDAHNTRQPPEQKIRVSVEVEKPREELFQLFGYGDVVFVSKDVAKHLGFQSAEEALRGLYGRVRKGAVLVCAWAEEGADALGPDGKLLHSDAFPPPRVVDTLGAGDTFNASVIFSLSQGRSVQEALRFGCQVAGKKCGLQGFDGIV
Assay: Ketohexokinase Assay (KHK Assay)
Experimental: a) Kinase Reaction1. preparation of Dilution Buffer containing 50 mM hydroxyethylpiperazine […] (Hepes), 140 mM KCl, 3.5 mM MgCl2, and 0.01% bovine serum albumin (BSA), pH 7.4.2. A working solution of ketohexokinase at 2.5 times concentration was prepared with Dilution Buffer, with 50 nM ketohexokinase and 12.5 mM fructose.3. A working solution of adenosine triphosphate (ATP) at 2.5 times concentration was prepared with Dilution Buffer, with a concentration of 250 μM.4. Each compound was diluted starting at a concentration of 500 μM, 3-fold diluted for 9 concentration points. The final concentration of the compound in the reaction system started from 10 μM and the final concentration of dimethyl sulfoxide (DMSO) was 2%.5. A 96-well plate was prepared as a reaction plate, and was incubated at room temperature for 5 min after adding 6 μL ketohexokinase working solution at 2.5 times concentration to each well and further adding 3 μL compound working solution to each well.6. The first well of each row was a positive control for a compound, i.e. the same volume of the buffer was added to replace the compound […]. The last well was a negative control for the compound, i.e. the same volume of Dilution Buffer was added instead of the compound.7. 6 μL ATP working solution was added to each well in a 96-well reaction plate to initiate the kinase reaction. The kinase reaction was incubated in a constant temperature heater at 28° C. for 1 h.b) ADP-Glo assay1. A384 plate was prepared as a detection plate, and firstly 5 μL ADP-Glo reagent was added.2. 5 μL kinase reaction mixture from the reaction plate was added to each well and incubated in a constant temperature heater at 28° C. for 30 min.3. 10 μL kinase detection reagent was added to each well and incubated in a constant temperature heater at 28° C. for 30 min.4. The detection plate was placed in an EnVision multilabel reader to read the chemiluminescent signal.

IC50 [nM]	SMILES
21	C[C@H]1CCN1c1nc(N2CC3(C[C@@H]3C(=O)O)C2)c2c(n1)C(F)(F)CC2 [US12534477, Compound WX042]
17	C[C@H]1CCN1c1nc(Nc2ccc(C(=O)O)c(C(F)(F)F)c2)c2ccsc2n1 [US12534477, Compound WX013]
36	C[C@H]1CCN1c1nc(N2CC3(CC3C(=O)O)C2)c2c(n1)C(F)(F)CC2 (some centres undefined) [US12534477, Compound WX035]
28	C[C@H]1CCN1c1nc(N2CC3(C[C@H]3C(=O)O)C2)c2c(n1)C(F)(F)CC2 [US12534477, Compound WX043]

— BindingDB's records for patent US12534477 (Hangzhou Zhongmeihuadong Pharmaceutical, 2026)
